Test results published in PMC11876601 (Molecular Systems Biology, 2025).
Read-outs that look alike come from different tables or passages of the source.

Columns and labels:
13 PDAC cell lines = test: Phenotypic drug combination viability screen (ATPlite, 72 h), cell line panel; type: cell-based, human; conditions: for median AUC across all cell lines: single agent, 72 h
Protocol: (§1) Cell viability was assessed by measuring ATP levels to indicate metabolic activity.
(§2) Afterward, small amounts were transferred to 384-well intermediate plates (Greiner Bio-One GmbH, Germany). […] For drug combination screening, 1000 to 5000 cells were seeded into 384-well plates (CulturPlate™, Perkin Elmer, MA, USA) using a Multidrop™ Combi Reagent Dispenser (Thermo Scientific, MA, USA) in 50 µl medium per well 24 h prior to drug treatment (seeding densities see Appendix Table S1). […] The final DMSO concentration in each well was 0.2%. […] Eight wells per plate without library drug served as negative controls, and sixteen wells per plate containing 5 µM Staurosporine served as positive controls. Control plates not containing any drug were used to correct for incubation effects, and data quality was assessed by calculation of Z-prime of positive and negative controls according to1 Z-prime=1−3SDpos+3SDneg/[…] where SD is the standard deviation. […] Dose–response curves from the experimental and hypothetical data were compared, and shifts in AUC were used to describe combination effects (AUC∆ = AUChypothetical − AUCexperimental). […] Only combinations with R^2 > 0.8 in both conditions were considered in the synergy analysis.

AsPC-1 [1] = test: cells; set-up: ATPlite luminescence viability of PDAC cell lines, 11-dose single-agent curves, 4-parameter fit; conditions: Homo sapiens, ASPC1, 72 h, read-out: EC50 [nM]
Outline: (§3)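 Drug-combination screening used cells plated at 1000 to 5000 per well one day before treatment. Final DMSO was 0.2%. Each plate held untreated negative-control wells and 5 µM staurosporine positive-control wells.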

BxPC-3 [2] = test: cells; set-up: ATPlite luminescence viability of PDAC cell lines, 11-dose single-agent curves, 4-parameter fit; conditions: Homo sapiens, BXPC-3, 72 h, read-out: EC50 [nM]
Outline: as §3

Capan-1 [3] = test: cells; set-up: ATPlite luminescence viability of PDAC cell lines, 11-dose single-agent curves, 4-parameter fit; conditions: Homo sapiens, CAPAN-1, 72 h, read-out: EC50 [nM]
Outline: as §3

Colo-357 [4] = test: cells; set-up: ATPlite luminescence viability of PDAC cell lines, 11-dose single-agent curves, 4-parameter fit; conditions: Homo sapiens, COLO357, 72 h, read-out: EC50 [nM]
Outline: as §3

Dan-G [5] = test: cells; set-up: ATPlite luminescence viability of PDAC cell lines, 11-dose single-agent curves, 4-parameter fit; conditions: 72 h, read-out: EC50 [nM]
Outline: as §3

FAMPAC [6] = test: cells; set-up: ATPlite luminescence viability of PDAC cell lines, 11-dose single-agent curves, 4-parameter fit; conditions: 72 h, read-out: EC50 [nM]
Outline: as §3

HPDE [7] = test: cells; set-up: ATPlite luminescence viability of PDAC cell lines, 11-dose single-agent curves, 4-parameter fit; conditions: HPDE, 72 h, read-out: EC50 [nM]
Outline: as §3

HuP-T4 [8] = test: cells; set-up: ATPlite luminescence viability of PDAC cell lines, 11-dose single-agent curves, 4-parameter fit; conditions: Homo sapiens, HuP-T4, 72 h, read-out: EC50 [nM]
Outline: as §3

MiaPaCa-2 [9] = test: cells; set-up: ATPlite luminescence viability of PDAC cell lines, 11-dose single-agent curves, 4-parameter fit; conditions: Homo sapiens, MIA PaCa-2, 72 h, read-out: EC50 [nM]
Outline: as §3

PANC-1 [10] = test: cells; set-up: ATPlite luminescence viability of PDAC cell lines, 11-dose single-agent curves, 4-parameter fit; conditions: Homo sapiens, PANC-1, 72 h, read-out: EC50 [nM]
Outline: as §3

PSN-1 [11] = test: cells; set-up: ATPlite luminescence viability of PDAC cell lines, 11-dose single-agent curves, 4-parameter fit; conditions: Homo sapiens, PSN1, 72 h, read-out: EC50 [nM]
Outline: as §3

PaTu-8988-T [12] = test: cells; set-up: ATPlite luminescence viability of PDAC cell lines, 11-dose single-agent curves, 4-parameter fit; conditions: Homo sapiens, PaTu 8988t, 72 h, read-out: EC50 [nM]
Outline: as §3

Suit2-07 [13] = test: cells; set-up: ATPlite luminescence viability of PDAC cell lines, 11-dose single-agent curves, 4-parameter fit; conditions: 72 h, read-out: EC50 [nM]
Outline: as §3

HuP-T4 [14] = test: cells; set-up: Viability of PDAC cell lines, ATPlite luminescence, 11-dose single-agent curve fit; conditions: Homo sapiens, HuP-T4, 72 h, read-out: EC50 [nM]
Outline: (§4)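 screening used cells plated at 1000 to 5000 per well one day before treatment. Final DMSO was 0.2%. Each plate held untreated negative-control wells and 5 µM staurosporine positive-control wells.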

[15] = tested on: HPDE (immortalized pancreatic duct cell line); test: Drug combination viability screen (ATPlite, 72 h); type: cell-based, human; conditions: single agent, HPDE;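 note: area under vehicle-normalized viability curve scaled 0 to 100 percent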
Protocol: as §1, §2

AsPC-1 [16] = test: cells; set-up: Viability of PDAC cell lines, ATPlite luminescence, 11-dose single-agent curve fit; conditions: Homo sapiens, ASPC1, 72 h, read-out: EC50 [nM]
Outline: as §4

BxPC-3 [17] = test: cells; set-up: Viability of PDAC cell lines, ATPlite luminescence, 11-dose single-agent curve fit; conditions: Homo sapiens, BXPC-3, 72 h, read-out: EC50 [nM]
Outline: as §4

Capan-1 [18] = test: cells; set-up: Viability of PDAC cell lines, ATPlite luminescence, 11-dose single-agent curve fit; conditions: Homo sapiens, CAPAN-1, 72 h, read-out: EC50 [nM]
Outline: as §4

Colo-357 [19] = test: cells; set-up: Viability of PDAC cell lines, ATPlite luminescence, 11-dose single-agent curve fit; conditions: Homo sapiens, COLO357, 72 h, read-out: EC50 [nM]
Outline: as §4

Dan-G [20] = test: cells; set-up: Viability of PDAC cell lines, ATPlite luminescence, 11-dose single-agent curve fit; conditions: 72 h, read-out: EC50 [nM]
Outline: as §4

FAMPAC [21] = test: cells; set-up: Viability of PDAC cell lines, ATPlite luminescence, 11-dose single-agent curve fit; conditions: 72 h, read-out: EC50 [nM]
Outline: as §4

HPDE [22] = test: cells; set-up: Viability of PDAC cell lines, ATPlite luminescence, 11-dose single-agent curve fit; conditions: HPDE, 72 h, read-out: EC50 [nM]
Outline: as §4

MiaPaCa-2 [23] = test: cells; set-up: Viability of PDAC cell lines, ATPlite luminescence, 11-dose single-agent curve fit; conditions: Homo sapiens, MIA PaCa-2, 72 h, read-out: EC50 [nM]
Outline: as §4

PANC-1 [24] = test: cells; set-up: Viability of PDAC cell lines, ATPlite luminescence, 11-dose single-agent curve fit; conditions: Homo sapiens, PANC-1, 72 h, read-out: EC50 [nM]
Outline: as §4

PSN-1 [25] = test: cells; set-up: Viability of PDAC cell lines, ATPlite luminescence, 11-dose single-agent curve fit; conditions: Homo sapiens, PSN1, 72 h, read-out: EC50 [nM]
Outline: as §4

PaTu-8988-T [26] = test: cells; set-up: Viability of PDAC cell lines, ATPlite luminescence, 11-dose single-agent curve fit; conditions: Homo sapiens, PaTu 8988t, 72 h, read-out: EC50 [nM]
Outline: as §4

Suit2-07 [27] = test: cells; set-up: Viability of PDAC cell lines, ATPlite luminescence, 11-dose single-agent curve fit; conditions: 72 h, read-out: EC50 [nM]
Outline: as §4

Row | EC50 (AsPC-1 [1]) [nM] | EC50 (BxPC-3 [2]) [nM] | EC50 (Colo-357 [4]) [nM] | EC50 (MiaPaCa-2 [9]) [nM] | EC50 (PANC-1 [10]) [nM] | SMILES | median AUC across all cell lines (13 PDAC cell lines) [%] | EC50 (Capan-1 [3]) [nM] | EC50 (Dan-G [5]) [nM] | EC50 (FAMPAC [6]) [nM] | EC50 (HPDE [7]) [nM] | EC50 (HuP-T4 [8]) [nM] | EC50 (PSN-1 [11]) [nM] | EC50 (PaTu-8988-T [12]) [nM] | EC50 (Suit2-07 [13]) [nM] | EC50 (HuP-T4 [14]) [nM] | also measured
1 | 41.9 | 29.9 | 37.7 | 26.3 | 28.6 | O=C(Cc1ccc(-c2ccc(OCCN3CCOCC3)cc2)cn1)NCc1ccccc1 [Tirbanibulin] | 60 | 43.4 | 31.9 | 33.1 | 39.9 |  | 30.7 | 33 | 45 | 10300 | 
2 | 21.1 | 25.2 | 19.8 | 12.8 | 37.7 | CC[C@@H]1C(=O)N(C)c2cnc(Nc3ccc(C(=O)N[C@H]4CC[C@H](N5CCN(CC6CC6)CC5)CC4)cc3OC)nc2N1C(C)C [Volasertib] | 54 | 32.3 | 29.1 | 19.9 | > 10000 | > 10000 | 16.4 | 33.8 | 19 |  | synergy with GEM (Bliss model, ΣAUC∆ > 10%) (13 PDAC cell lines; any of the cell lines, GEM low and GEM high): No synergy

Continued, compound first:

Row | SMILES | EC50 (AsPC-1 [1]) [nM] | EC50 (BxPC-3 [2]) [nM] | EC50 (Colo-357 [4]) [nM] | EC50 (MiaPaCa-2 [9]) [nM] | EC50 (PANC-1 [10]) [nM] | median AUC across all cell lines (13 PDAC cell lines) [%] | EC50 (Capan-1 [3]) [nM] | EC50 (Dan-G [5]) [nM] | EC50 (FAMPAC [6]) [nM] | EC50 (HPDE [7]) [nM] | EC50 (HuP-T4 [8]) [nM] | EC50 (PSN-1 [11]) [nM] | EC50 (PaTu-8988-T [12]) [nM] | EC50 (Suit2-07 [13]) [nM] | EC50 (HuP-T4 [14]) [nM] | also measured
3 | COc1c(OCCCN2CCOCC2)ccc2c1N=C(NC(=O)c1cnc(N)nc1)N1CCN=C21 [Copanlisib] | 175 | 113 | 17.6 | 65.6 | 58.8 | < 70 | 21.6 | 29.8 | 1110 | 283 | 48 | 787 | 101 | 108 |  | 
4 | CC(C)n1nc(-c2ccc3oc(N)nc3c2)c2c(N)ncnc21 [Sapanisertib] | 1.5 | 11.2 | 10.8 | 10.1 | 70.5 | 54 | 135 | 8.08 | 2.05 | 11.7 | 1510 | 23.2 | 3.95 | 14.2 |  | AUC [15]: < 60%
5 | CO[C@H]1C[C@@H]2CC[C@@H](C)[C@@](O)(O2)C(=O)C(=O)N2CCCC[C@H]2C(=O)O[C@H]([C@H](C)C[C@@H]2CC[C@@H](OC(=O)C(C)(CO)CO)[C@H](OC)C2)CC(=O)[C@H](C)/C=C(\C)[C@@H](O)[C@@H](OC)C(=O)[C@H](C)C[C@H](C)/C=C/C=C/C=C/1C [Temsirolimus] |  |  |  |  |  | > 80 |  |  |  |  |  |  |  |  | 30.2 | EC50 (AsPC-1 [16]): 1.54 nM; EC50 (BxPC-3 [17]): 0.06 nM; EC50 (Capan-1 [18]): 0.08 nM; EC50 (Colo-357 [19]): 4160 nM; EC50 (Dan-G [20]): 1.3 nM; EC50 (FAMPAC [21]): 0.13 nM; EC50 (HPDE [22]): 0.19 nM; EC50 (MiaPaCa-2 [23]): 2.17 nM; EC50 (PANC-1 [24]): 29.2 nM; EC50 (PSN-1 [25]): 0.57 nM; EC50 (PaTu-8988-T [26]): 0.57 nM; EC50 (Suit2-07 [27]): 0.35 nM
